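How tested: cells in 96-well plates exposed to compound for 48 hours at five concentrations. Abbreviation: GI50, concentration required for 50% inhibition of growth. TGI: total growth inhibition.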
Key:
Experiment in all cases: DTP human tumour cell line panel, 48 h
NCI-H23 lung = system: NCI-H23 lung
SNB-75 CNS = system: SNB-75 CNS
SF-295 CNS = system: SF-295 CNS
BT-549 breast = system: BT-549 breast
SK-MEL-5 melanoma = system: SK-MEL-5 melanoma
A549 NSCLC = system: A549 NSCLC
UACC-257 melanoma = system: UACC-257 melanoma
MDA-MB-231 breast = system: MDA-MB-231 breast
OVCAR-5 ovarian = system: OVCAR-5 ovarian
SK-MEL-28 melanoma = system: SK-MEL-28 melanoma
MOLT-4 leukemia = system: MOLT-4 leukemia
OVCAR-3 ovarian = system: OVCAR-3 ovarian
MDA-MB-468 breast = system: MDA-MB-468 breast
M14 melanoma = system: M14 melanoma
EKVX NSCLC = system: EKVX NSCLC
HCT-116 colon = system: HCT-116 colon
SF-539 CNS = system: SF-539 CNS
UO-31 renal = system: UO-31 renal
RPMI-8226 leukemia = system: RPMI-8226 leukemia
A498 renal = system: A498 renal
SW-620 colon = system: SW-620 colon
SR leukemia = system: SR leukemia
MALME-3M melanoma = system: MALME-3M melanoma
HL-60(TB) leukemia = system: HL-60(TB) leukemia
MDA-MB-435 = system: MDA-MB-435
HT29 colon = system: HT29 colon
U251 CNS = system: U251 CNS
NCI-H226 lung = system: NCI-H226 lung
HCC-2998 colon = system: HCC-2998 colon
OVCAR-8 ovarian = system: OVCAR-8 ovarian
CCRF-CEM leukemia = system: CCRF-CEM leukemia
COLO 205 colon = system: COLO 205 colon
TK-10 renal = system: TK-10 renal
T-47D breast = system: T-47D breast
NCI-H522 lung = system: NCI-H522 lung
SF-268 CNS = system: SF-268 CNS
RXF 393 renal = system: RXF 393 renal
UACC-62 melanoma = system: UACC-62 melanoma
DU-145 prostate = system: DU-145 prostate
HCT-15 colon = system: HCT-15 colon
HS 578T breast = system: HS 578T breast
KM12 colon = system: KM12 colon
NCI-H460 lung = system: NCI-H460 lung
SK-OV-3 ovarian = system: SK-OV-3 ovarian
PC-3 prostate = system: PC-3 prostate
CAKI-1 renal = system: CAKI-1 renal
SN12C renal = system: SN12C renal
HOP-62 NSCLC = system: HOP-62 NSCLC
SNB-19 CNS = system: SNB-19 CNS
LOX IMVI melanoma = system: LOX IMVI melanoma
SK-MEL-2 melanoma = system: SK-MEL-2 melanoma
ACHN renal = system: ACHN renal
MCF7 breast = system: MCF7 breast
HOP-92 NSCLC = system: HOP-92 NSCLC
OVCAR-4 ovarian = system: OVCAR-4 ovarian
786-0 renal = system: 786-0 renal
IGROV1 ovarian = system: IGROV1 ovarian
K-562 leukemia = system: K-562 leukemia
NCI/ADR-RES ovarian = system: NCI/ADR-RES ovarian

## Cc1ccc(-c2nc(C#N)c(S(=O)(=O)N3CCN(S(C)(=O)=O)CC3)o2)cc1
NCI-H23 lung
  GI50: 19.3 µM
  TGI: > 100 µM
SNB-75 CNS
  GI50: > 100 µM
  TGI: > 100 µM
SF-295 CNS
  GI50: 61.7 µM
  TGI: > 100 µM
BT-549 breast
  GI50: 47.4 µM
  TGI: > 100 µM
SK-MEL-5 melanoma
  GI50: > 100 µM
  TGI: > 100 µM
A549 NSCLC
  GI50: > 100 µM
  TGI: > 100 µM
UACC-257 melanoma
  GI50: 60.4 µM
  TGI: > 100 µM
MDA-MB-231 breast
  GI50: > 100 µM
  TGI: > 100 µM
OVCAR-5 ovarian
  GI50: > 100 µM
  TGI: > 100 µM
SK-MEL-28 melanoma
  GI50: > 100 µM
  TGI: > 100 µM
MOLT-4 leukemia
  GI50: 7.61 µM
  TGI: 37 µM
OVCAR-3 ovarian
  GI50: 24.6 µM
  TGI: > 100 µM
MDA-MB-468 breast
  GI50: 28.2 µM
  TGI: > 100 µM
M14 melanoma
  GI50: 26.3 µM
  TGI: > 100 µM
EKVX NSCLC
  GI50: > 100 µM
  TGI: > 100 µM
HCT-116 colon
  GI50: 11.8 µM
  TGI: 34.7 µM
SF-539 CNS
  GI50: 73.3 µM
  TGI: > 100 µM
UO-31 renal
  GI50: > 100 µM
  TGI: > 100 µM
RPMI-8226 leukemia
  GI50: 26.7 µM
  TGI: > 100 µM
A498 renal
  GI50: > 100 µM
  TGI: > 100 µM
SW-620 colon
  GI50: 2.48 µM
  TGI: 6.92 µM
SR leukemia
  GI50: 3.16 µM
  TGI: 26 µM
MALME-3M melanoma
  GI50: > 100 µM
  TGI: > 100 µM
HL-60(TB) leukemia
  GI50: 65.2 µM
  TGI: > 100 µM
MDA-MB-435
  GI50: 37.8 µM
  TGI: > 100 µM
HT29 colon
  GI50: 37.1 µM
  TGI: > 100 µM
U251 CNS
  GI50: 51.7 µM
  TGI: > 100 µM
NCI-H226 lung
  GI50: > 100 µM
  TGI: > 100 µM
HCC-2998 colon
  GI50: 53.8 µM
  TGI: > 100 µM
OVCAR-8 ovarian
  GI50: 23.2 µM
  TGI: > 100 µM
CCRF-CEM leukemia
  GI50: 3.83 µM
  TGI: > 100 µM
COLO 205 colon
  GI50: > 100 µM
  TGI: > 100 µM
TK-10 renal
  GI50: > 100 µM
  TGI: > 100 µM
T-47D breast
  GI50: 19.2 µM
  TGI: > 100 µM
NCI-H522 lung
  GI50: 2.17 µM
  TGI: 5.94 µM
SF-268 CNS
  GI50: > 100 µM
  TGI: > 100 µM
RXF 393 renal
  GI50: 75.6 µM
  TGI: > 100 µM
UACC-62 melanoma
  GI50: > 100 µM
  TGI: > 100 µM
DU-145 prostate
  GI50: > 100 µM
  TGI: > 100 µM
HCT-15 colon
  GI50: 3.81 µM
  TGI: 62.5 µM
HS 578T breast
  GI50: > 100 µM
  TGI: > 100 µM
KM12 colon
  GI50: > 100 µM
  TGI: > 100 µM
NCI-H460 lung
  GI50: > 100 µM
  TGI: > 100 µM
SK-OV-3 ovarian
  GI50: > 100 µM
  TGI: > 100 µM
PC-3 prostate
  GI50: > 100 µM
  TGI: > 100 µM
CAKI-1 renal
  GI50: > 100 µM
  TGI: > 100 µM
SN12C renal
  GI50: 75.1 µM
  TGI: > 100 µM
HOP-62 NSCLC
  GI50: > 100 µM
  TGI: > 100 µM
SNB-19 CNS
  GI50: > 100 µM
  TGI: > 100 µM
LOX IMVI melanoma
  GI50: 2.97 µM
  TGI: 16 µM
SK-MEL-2 melanoma
  GI50: > 100 µM
  TGI: > 100 µM
ACHN renal
  GI50: 44.1 µM
  TGI: > 100 µM
MCF7 breast
  GI50: 3.74 µM
  TGI: > 100 µM
HOP-92 NSCLC
  GI50: > 100 µM
  TGI: > 100 µM
OVCAR-4 ovarian
  GI50: > 100 µM
  TGI: > 100 µM
786-0 renal
  GI50: 64 µM
  TGI: > 100 µM
IGROV1 ovarian
  GI50: > 100 µM
  TGI: > 100 µM
K-562 leukemia
  GI50: 6.66 µM
  TGI: > 100 µM
NCI/ADR-RES ovarian
  GI50: 28 µM
  TGI: > 100 µM

Source: PubChem BioAssay (NCI)
